From PMC7588185 (2020)

Tested on: aad-4 riboswitch RNA (aad-4 leader RNA) (RNA, riboswitch) GGAGCAGCAACGAUGUUACGCAGCAGGGCAGUCGCCCUAAACAAAGUUAGGCCGCAUGGACACAACGCAGGUCACAUUGAUACACCAAAUUCUAGCUGCGGCAGAUGAGCGAAAU
Assay: MicroScale Thermophoresis
Settings: 100 mM KCl, 0.1 mM MgCl2, 10 mM HEPES pH 7.5, FTSC-labelled RNA
[1] = only group range 1.2–3.9 µM given

SMILES	Kd [1] [µM]	Kd [µM]
NC[C@H]1O[C@H](O[C@H]2[C@H](O)[C@@H](O)[C@H](N)C[C@@H]2N)[C@H](N)[C@@H](O)[C@@H]1O		12
CN[C@@H]1[C@@H](O)[C@@H](O[C@@H]2[C@@H](O)[C@H](O[C@H]3OC(CN)=CC[C@H]3N)[C@@H](N)C[C@H]2N)OC[C@]1(C)O	2.16 ± 0.25	

Now from value to compound:

Kd [1] [µM]	Kd [µM]	SMILES
2.55 ± 0.24		NC[C@H]1O[C@H](O[C@H]2[C@H](O)[C@@H](O[C@H]3O[C@H](CO)[C@@H](O)[C@H](N)[C@H]3O)[C@H](N)C[C@@H]2N)[C@H](N)[C@@H](O)[C@@H]1O
	10	NC[C@@H]1O[C@H](O[C@H]2[C@@H](O)[C@H](O[C@@H]3[C@@H](O)[C@H](N)C[C@H](N)[C@H]3O[C@H]3O[C@H](CO)[C@@H](O)[C@H](O)[C@H]3N)O[C@@H]2CO)[C@H](N)[C@@H](O)[C@@H]1O
	40	NC[C@H]1O[C@H](O[C@H]2[C@H](O[C@@H]3O[C@H](CO)[C@@H](O)[C@H]3O)[C@@H](O)[C@H](N)C[C@@H]2N)[C@H](N)[C@@H](O)[C@@H]1O
1.58 ± 0.28		NC[C@H]1O[C@H](O[C@H]2[C@H](O)[C@@H](O[C@H]3O[C@H](CO)[C@@H](O)[C@H](N)[C@H]3O)[C@H](N)C[C@@H]2N)[C@H](N)C[C@@H]1O
